Measured values from publication PMC6572064, “Discovery of 2-(1-(3-(4-Chloroxyphenyl)-3-oxo- propyl)pyrrolidine-3-yl)-1H-benzo[d]imidazole-4-carboxamide: A Potent Poly(ADP-ribose) Polymerase (PARP) Inhibitor for Treatment of Cancer” (Molecules, 2019).
“And” between values parts separate entries of the source, which are not always exact repeats. Equal entries are not always repeated. Where two headings read alike, the source gives them in different places.

Test system: CAPAN-1 (a BRCA-2-mutated pancreatic cancer cell line)
Experiment: Cell proliferation assay, three-day, CellTiter-Glo, CAPAN-1
Type: cell-based
Details: for IC50: read-out: IC50
Procedure: A three-day assay was conducted. A cell suspension was prepared. Cell density was counted by an automated cell counter and then diluted to the required density, according to seeding density. 50 μL cells were seeded into 384-well plate in growth medium according to the plate map. The cells were incubated at 37 °C, 5% CO2 overnight.
200× compound solution in DMSO was prepared and diluted with growth medium to 26× final concentration by addition of 26 μL 200× compounds to 174 μL growth medium. Then 2 μL of diluted compound solution was added to cells and the cell was incubated at 37 °C, 5% CO2 for 72 h.
The assay plate was equilibrated to room temperature prior to measurement. 15 μL of CellTiter-Glo Reagent was added into each well and the contents were mixed for 2 min on an orbital shaker to induce cell lysis. The cells were incubated at room temperature for 60 min to stabilize luminescent signal. Luminescence was recorded on the Envision system.

[1] = CAPAN-1, curve fit of Inh %, plate 1

CN[C@@H]1C[C@H]2O[C@@](C)([C@@H]1OC)n1c3ccccc3c3c4c(c5c6ccccc6n2c5c31)C(=O)NC4 [STS, reference compound]
IC50 (CAPAN-1, 72 h, supplement Summary sheet): 64.7 nM
Bottom [1]: 8.442 and 8.44
HillSlope [1]: 0.6137 and 0.61
Top [1]: 105.1
IC50 (CAPAN-1, curve fit, plate 1): 64.7 nM
